Legend:
H146 cells = assay: H146 cell viability, MTT assay; format: cell-based; settings: Homo sapiens, NCI-H146, 48 h, 48 h exposure
Procedure, shortened: (§1)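 Viability read by MTT reduction (OD 540 nm after overnight SDS/HCl lysis) after 48 h compound treatment of cells in RPMI 1640/10% FBS. Triplicates at nine concentrations, 3.16-fold apart; four-parameter curve fitting yields IC50.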

MOLT-4 cells = assay: MOLT-4 cell viability, MTT assay; format: cell-based; settings: Homo sapiens, MOLT-4, 48 h, 48 h exposure
Procedure, shortened: as §1

BCLXL = BCLXL (Homo sapiens, UniProt Q07817, V10N/V9A); assay: Fluorescence polarisation assay (PUMA-based probe displacement); format: binding; also: 20 nM protein, 10 nM fluorescent probe
Sequence of BCLXL (Q07817 with tags, fused parts or gaps V9A/V10N): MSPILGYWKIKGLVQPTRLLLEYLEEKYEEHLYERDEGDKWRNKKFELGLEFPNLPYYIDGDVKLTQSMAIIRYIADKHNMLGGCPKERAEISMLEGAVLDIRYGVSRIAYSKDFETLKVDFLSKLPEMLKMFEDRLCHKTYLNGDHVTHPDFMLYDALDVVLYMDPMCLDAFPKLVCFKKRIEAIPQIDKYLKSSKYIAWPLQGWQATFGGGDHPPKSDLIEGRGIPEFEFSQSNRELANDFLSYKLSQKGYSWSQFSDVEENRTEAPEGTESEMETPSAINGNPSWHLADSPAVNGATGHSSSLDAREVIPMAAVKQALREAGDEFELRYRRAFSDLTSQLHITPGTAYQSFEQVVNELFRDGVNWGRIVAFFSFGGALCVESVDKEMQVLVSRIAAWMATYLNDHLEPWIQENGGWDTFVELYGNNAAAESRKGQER

Cc1c(Nc2nc(C(=O)O)c(CCCOc3ccccc3)s2)nnc(Nc2nc3ccccc3s2)c1C [Example 9, 2-({6-[(1,3-Benzothiazol-2-yl)amino]-4,5-dimethylpyridazin-3-yl}amino)-5-(3-phenoxypropyl)-1,3-thiazole-4-carboxylic acid]
IC50 (H146 cells): 207 nM
IC50 (MOLT-4 cells): 2320 nM
Ki (BCLXL): 4 nM

COCCCC1(Cn2ncc(-c3sc(N(C)c4cc(C)c(Nc5nc6ccccc6s5)nn4)nc3C(=O)O)c2C)CCCCC1 [Example 42, 2-({6-[(1,3-Benzothiazol-2-yl)amino]-5-methylpyridazin-3-yl}(methyl)amino)-5-(1-{[1-(3-methoxypropyl)cyclohexyl]methyl}-5-methyl-1H-pyrazol-4-yl)-1,3-thiazole-4-carboxylic acid]
IC50 (H146 cells): 2040 nM
IC50 (MOLT-4 cells): 1020 nM
Ki (BCLXL): 4.7 nM

Cc1cc(N(C)c2ccc(C(=O)O)s2)nnc1Nc1nc2ccccc2s1 [Example 56, 5-({6-[(1,3-Benzothiazol-2-yl)amino]-5-methylpyridazin-3-yl}(methyl)amino)thiophene-2-carboxylic acid]
IC50 (H146 cells): > 15000 nM
IC50 (MOLT-4 cells): > 15000 nM
Ki (BCLXL): > 10000 nM

Cc1cc(N(C)c2nc(C(=O)O)c(C3CCN(Cc4ccccc4)CC3)s2)nnc1Nc1nc2ccccc2s1 [Example 86, 2-({6-[(1,3-Benzothiazol-2-yl)amino]-5-methylpyridazin-3-yl}(methyl)amino)-5-(1-benzylpiperidin-4-yl)-1,3-thiazole-4-carboxylic acid]
IC50 (H146 cells): ≥ 12400 nM
IC50 (MOLT-4 cells): 14600 nM
Ki (BCLXL): 160 nM

Cc1cc(N(C)c2nc(C(=O)O)c(C3CCN(CC(C)C)CC3)s2)nnc1Nc1nc2ccccc2s1 [Example 87, 2-({6-[(1,3-Benzothiazol-2-yl)amino]-5-methylpyridazin-3-yl}(methyl)amino)-5-[1-(2-methylpropyl)piperidin-4-yl]-1,3-thiazole-4-carboxylic acid]
IC50 (H146 cells): > 15000 nM
IC50 (MOLT-4 cells): > 15000 nM
Ki (BCLXL): 530 nM

Cc1cc(N(CCCO)c2nc(C(=O)O)cs2)nnc1Nc1nc2ccccc2s1 [Example 49, 2-({6-[(1,3-Benzothiazol-2-yl)amino]-5-methylpyridazin-3-yl}(3-hydroxypropyl)amino)-1,3-thiazole-4-carboxylic acid]
IC50 (H146 cells): > 15000 nM
IC50 (MOLT-4 cells): > 15000 nM
Ki (BCLXL): 8.1 nM

Cc1c(Nc2nc(C(=O)O)cs2)nnc(Nc2nc3ccccc3s2)c1CO [Example 27, 2-({6-[(1,3-Benzothiazol-2-yl)amino]-5-(hydroxymethyl)-4-methylpyridazin-3-yl}amino)-1,3-thiazole-4-carboxylic acid]
IC50 (H146 cells): > 15000 nM
IC50 (MOLT-4 cells): > 13000 nM
Ki (BCLXL): 310 nM

CC(C)c1cc(N(C)c2nc(C(=O)O)cs2)nnc1Nc1nc2ccccc2s1 [Example 34, 2-({6-[(1,3-Benzothiazol-2-yl)amino]-5-(propan-2-yl)pyridazin-3-yl}(methyl)amino)-1,3-thiazole-4-carboxylic acid]
IC50 (H146 cells): 5320 nM
IC50 (MOLT-4 cells): 3890 nM
Ki (BCLXL): 8.9 nM

COCCN(c1cc(C)c(Nc2nc3ccccc3s2)nn1)c1nc(C(=O)O)cs1 [Example 39, 2-({6-[(1,3-Benzothiazol-2-yl)amino]-5-methylpyridazin-3-yl}(2-methoxyethyl)amino)-1,3-thiazole-4-carboxylic acid]
IC50 (H146 cells): > 15000 nM
IC50 (MOLT-4 cells): > 15000 nM
Ki (BCLXL): 54 nM

O=C(O)c1csc(Nc2nnc(Nc3nc4ccccc4s3)c3c2CCC3)n1 [Example 23, 2-[[1-(1,3-Benzothiazol-2-ylamino)-6,7-dihydro-5H-cyclopenta[d]pyridazin-4-yl]amino]thiazole-4-carboxylic acid]
IC50 (H146 cells): ≥ 12700 nM
IC50 (MOLT-4 cells): 13000 nM
Ki (BCLXL): 40 nM

Cc1cc(N(C)c2nc(C(=O)O)c(CCCOC3CCCCC3)s2)nnc1Nc1nc2ccccc2s1 [Example 61, 2-({6-[(1,3-Benzothiazol-2-yl)amino]-5-methylpyridazin-3-yl}(methyl)amino)-5-[3-(cyclohexyloxy)propyl]-1,3-thiazole-4-carboxylic acid]
IC50 (H146 cells): 593 nM
IC50 (MOLT-4 cells): 192 nM
Ki (BCLXL): < 1 nM

Cc1cc(N(C)c2nc(C(=O)O)c(C3CCNCC3)s2)nnc1Nc1nc2ccccc2s1 [Example 83, 2-({6-[(1,3-Benzothiazol-2-yl)amino]-5-methylpyridazin-3-yl}(methyl)amino)-5-(piperidin-4-yl)-1,3-thiazole-4-carboxylic acid]
IC50 (H146 cells): > 15000 nM
IC50 (MOLT-4 cells): > 15000 nM
Ki (BCLXL): 320 nM

Cc1cc(N(C)c2nc(C(=O)O)c(C3CCCCC3)s2)nnc1Nc1nc2ccccc2s1 [Example 102, 2-({6-[(1,3-Benzothiazol-2-yl)amino]-5-methylpyridazin-3-yl}(methyl)amino)-5-cyclohexyl-1,3-thiazole-4-carboxylic acid]
IC50 (H146 cells): > 15000 nM
IC50 (MOLT-4 cells): > 15000 nM
Ki (BCLXL): 220 nM

Cc1cc(N(CCCN2CCOCC2)c2nc(C(=O)O)cs2)nnc1Nc1nc2ccccc2s1 [Example 44, 2-({6-[(1,3-Benzothiazol-2-yl)amino]-5-methylpyridazin-3-yl}[3-(morpholin-4-yl)propyl]amino)-1,3-thiazole-4-carboxylic acid]
IC50 (H146 cells): > 15000 nM
IC50 (MOLT-4 cells): > 15000 nM
Ki (BCLXL): 69 nM

COCCCN(c1cc(C)c(Nc2nc3ccccc3s2)nn1)c1nc(C(=O)O)c(CCCOc2ccccc2F)s1 [Example 67, 2-({6-[(1,3-Benzothiazol-2-yl)amino]-5-methylpyridazin-3-yl}(3-methoxypropyl)amino)-5-[3-(2-fluorophenoxy)propyl]-1,3-thiazole-4-carboxylic acid]
IC50 (H146 cells): 710 nM
IC50 (MOLT-4 cells): 754 nM
Ki (BCLXL): < 1 nM

COCCCC1(Cn2ncc(-c3sc(Nc4nnc(Nc5nc6ccccc6s5)c(C)c4C)nc3C(=O)O)c2C)CCCCC1 [Example 36, 2-({6-[(1,3-benzothiazol-2-yl)amino]-4,5-dimethylpyridazin-3-yl}amino)-5-(1-{[1-(3-methoxypropyl)cyclohexyl]methyl}-5-methyl-1H-pyrazol-4-yl)-1,3-thiazole-4-carboxylic acid]
IC50 (H146 cells): 1990 nM
IC50 (MOLT-4 cells): 3470 nM
Ki (BCLXL): 28 nM

Cc1c(-c2sc(N(C)c3cc(C4CC4)c(Nc4nc5ccccc5s4)nn3)nc2C(=O)O)cnn1CC12CC3CC(CC(C3)C1)C2 [Example 53, 5-{1-[(Adamantan-1-yl)methyl]-5-methyl-1H-pyrazol-4-yl}-2-({6-[(1,3-benzothiazol-2-yl)amino]-5-cyclopropylpyridazin-3-yl}(methyl)amino)-1,3-thiazole-4-carboxylic acid]
IC50 (H146 cells): 1650 nM
IC50 (MOLT-4 cells): 701 nM
Ki (BCLXL): 15 nM

COCCCc1sc(Nc2nnc(Nc3nc4ccccc4s3)c(C)c2C)nc1C(=O)O [Example 12]
IC50 (H146 cells): 913 nM
IC50 (MOLT-4 cells): 1620 nM
Ki (BCLXL): 27 nM

COCCCN(c1cc(C)c(Nc2nc3ccccc3s2)nn1)c1nc(C(=O)O)c(CCCOC2CCCCC2)s1 [Example 66, 2-({6-[(1,3-Benzothiazol-2-yl)amino]-5-methylpyridazin-3-yl}(3-methoxypropyl)amino)-5-[3-(cyclohexyloxy)propyl]-1,3-thiazole-4-carboxylic acid]
IC50 (H146 cells): 1160 nM
IC50 (MOLT-4 cells): 527 nM
Ki (BCLXL): 1.9 nM

COCCCN(c1cc(C)c(Nc2nc3ccccc3s2)nn1)c1nc(C(=O)O)cs1 [Example 47, 2-({6-[(1,3-Benzothiazol-2-yl)amino]-5-methylpyridazin-3-yl}(3-methoxypropyl)amino)-1,3-thiazole-4-carboxylic acid]
IC50 (H146 cells): ≥ 9620 nM
IC50 (MOLT-4 cells): > 15000 nM
Ki (BCLXL): 23 nM

Cc1cc(N(C)c2nc(C(=O)O)c(N3CCC(OCc4ccccc4)CC3)s2)nnc1Nc1nc2ccccc2s1 [Example 75, 2-({6-[(1,3-Benzothiazol-2-yl)amino]-5-methylpyridazin-3-yl}(methyl)amino)-5-[4-(benzyloxy)piperidin-1-yl]-1,3-thiazole-4-carboxylic acid]
IC50 (H146 cells): > 15000 nM
IC50 (MOLT-4 cells): 2920 nM
Ki (BCLXL): < 1 nM

Cc1cc(N(C)c2nc(C(=O)O)c(C3CCCC3)s2)nnc1Nc1nc2ccccc2s1 [Example 105, 2-({6-[(1,3-Benzothiazol-2-yl)amino]-5-methylpyridazin-3-yl}(methyl)amino)-5-cyclopentyl-1,3-thiazole-4-carboxylic acid]
IC50 (H146 cells): > 15000 nM
IC50 (MOLT-4 cells): > 15000 nM
Ki (BCLXL): 380 nM

Cc1cc(N(C)c2nc(C(=O)O)c(N3CC(Oc4ccccc4)C3)s2)nnc1Nc1nc2ccccc2s1 [Example 69, 2-({6-[(1,3-Benzothiazol-2-yl)amino]-5-methylpyridazin-3-yl}(methyl)amino)-5-(3-phenoxyazetidin-1-yl)-1,3-thiazole-4-carboxylic acid]
IC50 (H146 cells): 686 nM
IC50 (MOLT-4 cells): 446 nM
Ki (BCLXL): 4.2 nM

Source: US12649733B2, “3,6-diamino-pyridazin-3-yl derivatives, pharmaceutical compositions containing them and their uses as pro-apoptotic agents” (LES LABORATOIRES SERVIER, priority 2019, dated 2026)
